Article PMC4503722, “Novel Phenotypic Outcomes Identified for a Public Collection of Approved Drugs from a Publicly Accessible Panel of Assays” (PLoS ONE, 2015)
Like-named read-outs stand apart in the source and are kept apart here.

Columns and labels:
SNU-C1 = test: cells; format: cell-based; details: for IC50: read-out: Basal_Viability ATP SNU-C1 summarized IC50
[1] = test system: HCT116 cells treated with a GSK3β inhibitor; test: cells; format: cell-based; details: for IC50: read-out: GSK3b inh pretreated_Viability ATP HCT116 summarized IC50
SW480 = test: cells; format: cell-based; details: for IC50: read-out: Basal_Viability ATP SW480 summarized IC50
HT-29 = test: cells; format: cell-based; details: for IC50: read-out: Basal_Viability ATP HT-29 summarized IC50
[2] = test system: endothelial tube formation in co-cultures of ECFCs and ADSCs treated with VEGF; test: cells; format: cell-based, human; details: for IC50: read-out: VEGF_ADSC\ECFC Angio CD31 TubeArea summarized IC50
RKO = test: cells; format: cell-based; details: for IC50: read-out: Basal_Viability ATP RKO summarized IC50
[3] = test system: ECFC/ADSC co-culture cell nuclei number; details: for IC50: read-out: VEGF_ADSC\ECFC Angio Hoechst NucArea summarized IC50
DLD-1 = test: cells; format: cell-based; details: for IC50: read-out: Basal_Viability ATP DLD-1 summarized IC50
HCT116 = test: cells; format: cell-based; details: for IC50: read-out: Basal_Viability ATP HCT116 summarized IC50
Colo320 = test: cells; format: cell-based; details: for IC50: read-out: Basal_Viability ATP Colo 320 summarized IC50
[4] = assay number 30, concentration response
[5] = assay number 26, GSK3b inhibitor pretreated, concentration response
[6] = assay number 24, concentration response
[7] = assay number 28, concentration response
[8] = assay number 29, concentration response
[9] = assay number 23, concentration response
[10] = assay number 25, basal, concentration response
[11] = assay number 27, concentration response
[12] = assay number 26, GSK3b inhibitor pretreated

Structure (SMILES) | VEGF_ADSC\ECFC Angio CD31 TubeArea IC50/EC50 [2] [µM] | VEGF_ADSC\ECFC Angio Hoechst NucArea IC50/EC50 [3] [µM] | IC50 [2] [µM] | IC50 [3] [µM] | IC50 (SNU-C1; assay number 30, basal) [µM] | IC50 [1, 12] [µM] | IC50 (SW480; assay number 24, basal) [µM] | IC50 (HT-29; assay number 28, basal) [µM] | IC50 (RKO; assay number 29, basal) [µM] | IC50 (DLD-1; assay number 23, basal) [µM] | IC50 (HCT116; assay number 25, basal) [µM] | IC50 (Colo320; assay number 27, basal) [µM] | also measured
O=C([O-])CCC(=O)OC[C@@H](NC(=O)C(Cl)Cl)[C@H](O)c1ccc([N+](=O)[O-])cc1.[Na+] [NCGC00094619-06] | > 10 | > 10 |  |  |  |  |  |  |  |  |  |  | Basal_Viability ATP SNU-C1 IC50/EC50 (SNU-C1; [4]): > 20 µM; GSK3b inh pretreated_Viability ATP HCT116 IC50/EC50 [1, 5]: > 20 µM; Basal_Viability ATP SW480 IC50/EC50 (SW480; [6]): > 20 µM; Basal_Viability ATP HT-29 IC50/EC50 (HT-29; [7]): > 20 µM; Basal_Viability ATP RKO IC50/EC50 (RKO; [8]): > 20 µM; Basal_Viability ATP DLD-1 IC50/EC50 (DLD-1; [9]): > 20 µM; Basal_Viability ATP HCT116 IC50/EC50 (HCT116; [10]): > 20 µM; Basal_Viability ATP Colo 320 IC50/EC50 (Colo320; [11]): > 20 µM
Oc1c(Br)cc(Br)c2cccnc12 [NCGC00094815-05] |  |  | > 10 | > 10 |  |  |  |  |  |  |  |  | IC50 (SNU-C1): 0.366 µM; IC50 [1]: 0.183 µM; IC50 (SW480): 0.132 µM; IC50 (HT-29): 5.25 µM; IC50 (RKO): 0.163 µM; IC50 (DLD-1): 0.157 µM; IC50 (HCT116): 0.193 µM; IC50 (Colo320): 0.114 µM
Nc1c2ccccc2nc2ccccc12 [NCGC00094857-05] |  |  | > 10 | > 10 | > 6.67 | 3.87 | > 20 | > 20 | > 6.67 | > 20 | 2.02 | 8.81 | 
CCCCCCCCCCCCCCCC(=O)OC/C=C(C)/C=C/C=C(C)/C=C/C1=C(C)CCCC1(C)C [NCGC00095056-04] |  |  | > 10 | > 10 | > 20 | > 20 | > 20 | > 20 | > 20 | > 20 | > 20 | > 20 | 
O=C(OCCO)c1ccccc1O [NCGC00159379-04] | > 10 | > 10 |  |  |  |  |  |  |  |  |  |  | Basal_Viability ATP SNU-C1 IC50/EC50 (SNU-C1; [4]): > 20 µM; GSK3b inh pretreated_Viability ATP HCT116 IC50/EC50 [1, 5]: > 20 µM; Basal_Viability ATP SW480 IC50/EC50 (SW480; [6]): > 20 µM; Basal_Viability ATP HT-29 IC50/EC50 (HT-29; [7]): > 20 µM; Basal_Viability ATP RKO IC50/EC50 (RKO; [8]): > 20 µM; Basal_Viability ATP DLD-1 IC50/EC50 (DLD-1; [9]): > 20 µM; Basal_Viability ATP HCT116 IC50/EC50 (HCT116; [10]): > 20 µM; Basal_Viability ATP Colo 320 IC50/EC50 (Colo320; [11]): > 20 µM
CC(=O)NC(=O)c1ccccc1O [NCGC00160362-02] |  |  | > 10 | > 10 | > 20 | > 20 | > 20 | > 20 | > 20 | > 20 | > 20 | > 20 | 
CCCCN1CCCC1C(=O)Nc1c(C)cc(C)cc1C (centres unmarked) [NCGC00160363-03] | > 10 | > 10 |  |  |  |  |  |  |  |  |  |  | Basal_Viability ATP SNU-C1 IC50/EC50 (SNU-C1; assay number 30, basal): > 20 µM; GSK3b inh pretreated_Viability ATP HCT116 IC50/EC50 [1, 12]: > 20 µM; Basal_Viability ATP SW480 IC50/EC50 (SW480; assay number 24, basal): > 20 µM; Basal_Viability ATP HT-29 IC50/EC50 (HT-29; assay number 28, basal): > 20 µM; Basal_Viability ATP RKO IC50/EC50 (RKO; assay number 29, basal): > 20 µM; Basal_Viability ATP DLD-1 IC50/EC50 (DLD-1; assay number 23, basal): > 20 µM; Basal_Viability ATP HCT116 IC50/EC50 (HCT116; assay number 25, basal): > 20 µM; Basal_Viability ATP Colo 320 IC50/EC50 (Colo320; assay number 27, basal): > 20 µM
O=C(Nc1ccc(Br)cc1)c1cc(Br)c(Br)s1 [NCGC00160448-02] | > 10 | > 10 |  |  |  |  |  |  |  |  |  |  | Basal_Viability ATP SNU-C1 IC50/EC50 (SNU-C1; assay number 30, basal): 1.0991 µM; GSK3b inh pretreated_Viability ATP HCT116 IC50/EC50 [1, 12]: 0.3423 µM; Basal_Viability ATP SW480 IC50/EC50 (SW480; assay number 24, basal): 0.1229 µM; Basal_Viability ATP HT-29 IC50/EC50 (HT-29; assay number 28, basal): 0.5199 µM; Basal_Viability ATP RKO IC50/EC50 (RKO; assay number 29, basal): 0.4312 µM; Basal_Viability ATP DLD-1 IC50/EC50 (DLD-1; assay number 23, basal): 0.3353 µM; Basal_Viability ATP HCT116 IC50/EC50 (HCT116; assay number 25, basal): 0.5412 µM; Basal_Viability ATP Colo 320 IC50/EC50 (Colo320; assay number 27, basal): 0.018 µM
